How the values were obtained:
Per2::Luc U2OS cells = assay: Per2::Luc cell based circadian assay; details: Per2::Luc U2OS cells, dose response
Description: U2OS cells stably transfected with a Per2::Luc reporter were cultured in DMEM supplemented with 10% FBS. For siRNA- and drug-based experiments, cells were seeded at 5,000 per well into white 384 well plates and transfected with 20 nM siRNA the next day. 2 days later, the cells were synchronized with 100 nM dexamethasone and the medium was replaced with phenol-red free DMEM supplemented with B-27 and 100 µM luciferin potassium salt, requisite drugs formulated in DMSO as a 1000× stock was added, and then sealed. Per2::Luc rhythms were recorded from a BMG Labtech Fluostar Omega plate reader maintained at 36° C. and readings taken from each well every hour. Data were then analysed using either Multicycle or Brass rhythm analysis software.
Period2::Luciferase (Per2::Luc) stable U2OS transfects were cultured, as described above. A Greiner Bio-One 384 Well Plate (Polystyrene, F-bottom), was then seeded at 6000 cells per 50 μl well. Following a 24 hour period, the cells were treated with 0.1% dexamethasone, a glucocorticoid hormone analogue known to reset intracellular circadian rhythms, for 1 hour. Subsequently, the dexamethasone-containing medium was removed, the cells were washed with PBS and luciferin and test drug containing medium was added. The cells were then assayed for luminescence over a period of 96 hours in the BMG FLUOstar OPTIMA Microplate Reader to observe the periodicity and amplitude of the luminescence values.

C57Bl/6 mice = assay: Phase shifting of circadian activity in response to a light pulse with drug; assay type: in vivo; details: light at CT16
Description: Animals were maintained in a 12 h light (white) 12 h dark (grey) cycle and vehicle was administered just before a 30 min 400 lux light pulse (white bar) at time CT 22 (or 10 hours after lights off). All light cues were then removed to allow the animals free running clock to express. A gap in the lines on the day after the light pulse was administered indicates a phase shift.
Animals were maintained in a 12 h light (white) 12 h dark (grey) cycle and IB-MECA (1 mg/kg) was administered just before a 30 min 400 lux light pulse (white bar) at time CT 22 (or 10 hours after lights off).
Animals were housed under a reversed 12:12 LD cycle (400 lux from white LED lamps) with food and water ad libitum. For phase-shifting studies, C57Bl/6 mice were maintained on running wheels in light tight chambers on a 12:12 LD cycle (400 lux from white LED lamps) and injected with drug at the indicated time points. The drugs were formulated in a vehicle consisting of 5% Koliphor-HS15 (Sigma-Aldrich, UK) 5% Cyclodextran (Sigma-Aldrich, UK) in 0.9% saline. […] Where measuring phase-shifting, the mice were then placed in DD and allowed to free run for 14 days in DD, running wheel activity data was collected and analysed on Clocklab (Actimetrics, Wilmette, IL). […]

Per2 = Per2 mRNA within the SCN after intraperitoneal injection; assay type: in vivo, mice; details: 4 h after intraperitoneal injection
From the text: SCN Tissue Collection: Animals were housed under a 12:12 LD cycle for 2 weeks with food and water ad libitum. Animals then received either a drug injection with a alteration in the light dark cycle as described in the experiment and at set points following drug administration were sacrificed by cervical dislocation. Sham-treated mice not given a light pulse were dissected at each time point. Brains were removed and placed into a brain matrix (Kent Scientific, Torrington CT, USA). Per2::Luc transgenic animals (as reported in Yoo et al, Proc Natl Acad Sci USA. 2004 Apr. 13; 101(15):5339-46) were obtained from Prof Joseph Takahashi, Northwestern University. […]
Total RNA was extracted using the microRNeasy column method (Qiagen, Hilden, Germany). Quality and quantity of RNA were measured using an Agilent Bioanalyzer and a Nanodrop1000 (Thermo Fisher Scientific, Waltham, MA USA), respectively.
RNA samples were prepared as described for microarray hybridisation. cDNA was synthesized with a qScript cDNA synthesis kit (Quanta Biosciences, Gaithersburg, MD), and quantitative PCR (qPCR) was conducted with Sybr green I and an SDS7700 thermal cycler (Applied Biosystems, Foster City, CA). Relative quantification of transcript levels was done as described previously (Peirson et al., Nucleic Acids Res. 2003 Jul. 15; 31(14):e73.). […]

With `Nc1nc(-c2ccccc2)c2c(n1)-c1cc(OCCN3CCOCC3)ccc1C2=O` [JNJ40255293, 2-amino-8-[2-(4-morpholinyl)ethoxy]-4-phenyl-5H-indeno[1,2-d]pyrimidin-5-one] as the compound, how does the circadian period length (Per2::Luc U2OS cells) read?
Its circadian period length is “increased circadian period length in a dose dependent manner”.

What about the “phase-shifts in response to light” value (C57Bl/6 mice) of the same compound?
The value was “enhances phase-shifts in response to light at CT16”.

What about the “Per2 mRNA levels within the SCN” value (Per2) of the same compound?
The value was “increase”.

Reference: patent US11931374B2, “Adenosine receptor modulators for the treatment of circadian rhythm disorders” (OXFORD UNIVERSITY INNOVATION LIMITED, priority 2016, dated 2024)
